In patent publication US20080070855A1, “Treatment with anti-VEGF agents to prevent postoperative inflammation and angiogenesis in normal and diseased eyes” (priority 2006, published 2008):

Tested on: patients with diabetic retinopathy undergoing cataract surgery
Assay: Intravitreal injection of anti-VEGF compound before cataract surgery in patients with diabetic retinopathy (case reports)
Assay type: in vivo, human
Conditions: Example 2: diabetic retinopathy; 0.15 cc (3.75 mg) intravitreal, same day prior to cataract surgery
Method: The following is an example of a method performed for the intravitreal injection of pharmaceutical compositions containing at least one anti-VEGF compound. Prior to injecting a needle through the sclera, the eyes were massaged to soften the ophthalmic tissue. The next step is to create a bleb in the conjunctiva and move the conjunctiva up from prefere so it covered an area about 3.5 mm from the limbus. Once the conjunctiva is prepared, the needle is inserted through the sclera into the vitreous. A 30 or 31 gauge needle is used. […]
A person underwent cataract surgery in the right eye. […] Refraction of the right eye was measured as −0.25−0.75×170 20/200. […] Refraction of the right eye after one week was measured at −0.25 sph 20/25.
A person with proliferative diabetic retinopathy with a history of pan-photocoagulation underwent cataract surgery of both eyes, however on different dates. Preoperative right eye refraction was measured as pl −0.50×174 20/100. Preoperative left eye refraction was measured as −0.75 sph 20/150. […]
A person with proliferative diabetic retinopathy with a history of pan-photocoagulation underwent cataract surgery of the left eye. Preoperative left eye refraction was measured as plano sph 20/80. […] Six days following cataract surgery refraction of the left eye was measured as plano sph 20/25.

Substance: Bevacizumab: anti-VEGF humanized monoclonal IgG1 antibody that binds and inhibits VEGF (trade name AVASTIN, Genentech)
- Patient condition after one week: doing well
